Assay results taken from ChEMBL document CHEMBL5137011, “Semisynthetic pleuromutilin antimicrobials with therapeutic potential against methicillin-resistant Staphylococcus aureus by targeting 50S ribosomal subunit” (Eur J Med Chem, 2022).
Converted amounts (≈) assume the structure as drawn.

How the values were obtained:
[1] = tested on: Staphylococcus aureus; test: Antibacterial activity against Staphylococcus aureus 144 assessed as inhibition of bacterial growth incubated for 16 hrs by CLSI based broth microdilution method; format: functional
[2] = tested on: RAW264.7; test: Cytotoxicity against mouse RAW264.7 cells assessed as reduction in cell viability at 8 ug/ml incubated for 16 hrs by MTT assay; format: toxicity, cell-based; conditions: raw264.7, 16 h, dose 8 µg/ml
[3] = tested on: Staphylococcus aureus; test: Antibacterial activity against Staphylococcus aureus SA17 assessed as inhibition of bacterial growth incubated for 16 hrs by CLSI based broth microdilution method; format: functional
[4] = tested on: Staphylococcus aureus; test: Antibacterial activity against Staphylococcus aureus AD3 assessed as inhibition of bacterial growth incubated for 16 hrs by CLSI based broth microdilution method; format: functional
[5] = tested on: 16HBE14o-; test: Cytotoxicity against human 16HBE14o- cells assessed as reduction in cell viability at 8 ug/ml incubated for 16 hrs by MTT assay; format: toxicity, cell-based; conditions: dose 8 µg/ml
[6] = tested on: Staphylococcus aureus; test: Antibacterial activity against Staphylococcus aureus ATCC 29213 assessed as inhibition of bacterial growth incubated for 16 hrs by CLSI based broth microdilution method; format: functional
[7] = tested on: Staphylococcus aureus; test: Antibacterial activity against methicillin-resistant Staphylococcus aureus ATCC 43300 assessed as inhibition of bacterial growth incubated for 16 hrs by CLSI based broth microdilution method; format: functional
[8] = tested on: Staphylococcus aureus; test: Antibacterial activity against methicillin-resistant Staphylococcus aureus ATCC 43300 infected in ICR/Swiss mouse […] thigh infection model assessed as log reduction in bacterial load in thigh at 20 mg/kg, iv administered as bolus injection measured after 24 hrs; format: functional
[9] = molecular target: Bacterial 70S ribosome; test: Binding affinity to Staphylococcus aureus ATCC 43300 50S ribosomal subunit assessed as equilibrium dissociation constant by surface plasmon resonance analysis; format: subcellular
[10] = molecular target: Bacterial 70S ribosome (Bacteria) (UniProt P0A7V0+P60723+P0AG67+P0A7R5+P0A7R9+P0A7S3+P0A7S9+P0AG59+P0ADZ4+P0A7T3+P0AG63+P0A7T7+P0A7U3+P0A7U7+P68679+P0A7V3+P0A7V8+P0A7W1+P02358+P02359+P0A7W7+P0A7X3+P0A7J3+P0A7J7+P0AA10+P0ADY3+P02413+P0ADY7+P0AG44+P0C018+P0A7K6+P0A7L0+P0A7L3+P0AG48+P61175+P0ADZ0+P60624+P68919+P0A7L8+P0A7M2+P0A7M6+P60422+P0AG51+P0A7N1+P0A7M9+P0A7N4+P0A7N9+P0A7P5+P0A7Q1+Q2EEQ2+P0A7Q6+P60438+P62399+P0AG55+P0A7K2); test: Binding affinity to Staphylococcus aureus ATCC 43300 50S ribosomal subunit assessed as association rate constant by surface plasmon resonance analysis; format: subcellular
[11] = tested on: Staphylococcus aureus; test: Antibacterial activity against methicillin-resistant Staphylococcus aureus ATCC 43300 assessed as log reduction in colony forming unit at 4 times MIC measured after 3 hrs by time kill assay; format: functional
[12] = tested on: Staphylococcus aureus; test: Antibacterial activity against methicillin-resistant Staphylococcus aureus ATCC 43300 assessed as log reduction in colony forming unit at 4 times MIC measured after 24 hrs by time kill assay; format: functional

SMILES	MIC [1]	Activity [2]	MIC [3]	MIC [4]	Activity [5]	MIC [6]	MIC [7]	Activity [8]	Kd [9]	Ka [10]	Activity [11]	Activity [12]
C=C[C@]1(C)C[C@@H](OC(=O)CSc2nnc(-c3cccc(F)c3)[nH]2)[C@]2(C)[C@H](C)CC[C@]3(CCC(=O)[C@H]32)[C@@H](C)[C@@H]1O	1 µg/mL (≈ 1.8 µM)	Non-Toxic	0.5 µg/mL (≈ 0.9 µM)	0.0625 µg/mL (≈ 0.112 µM)	Non-Toxic	0.125 µg/mL (≈ 0.225 µM)	0.125 µg/mL (≈ 0.225 µM)	–	–	–	–	–
C=C[C@]1(C)C[C@@H](OC(=O)CSc2nnc(-c3ccccc3OC)[nH]2)[C@]2(C)[C@H](C)CC[C@]3(CCC(=O)[C@H]32)[C@@H](C)[C@@H]1O	0.125 µg/mL (≈ 0.22 µM)	Non-Toxic	0.125 µg/mL (≈ 0.22 µM)	0.0625 µg/mL (≈ 0.11 µM)	Non-Toxic	0.125 µg/mL (≈ 0.22 µM)	0.0625 µg/mL (≈ 0.11 µM)	-1.27 log10CFU/ml	121 µM	4.99 10^2/Ms	-1.53 log10CFU/ml	-7.1 log10CFU/ml
C=C[C@]1(C)C[C@@H](OC(=O)CSc2nnc(-c3ccccc3C)[nH]2)[C@]2(C)[C@H](C)CC[C@]3(CCC(=O)[C@H]32)[C@@H](C)[C@@H]1O	1 µg/mL (≈ 1.81 µM)	Non-Toxic	0.5 µg/mL (≈ 0.906 µM)	0.125 µg/mL (≈ 0.227 µM)	Non-Toxic	0.25 µg/mL (≈ 0.453 µM)	0.0625 µg/mL (≈ 0.113 µM)	–	–	–	–	–
C=C[C@]1(C)C[C@@H](OC(=O)CSc2nnc(-c3ccc([N+](=O)[O-])cc3)[nH]2)[C@]2(C)[C@H](C)CC[C@]3(CCC(=O)[C@H]32)[C@@H](C)[C@@H]1O	2 µg/mL (≈ 3.43 µM)	Non-Toxic	0.5 µg/mL (≈ 0.858 µM)	0.0625 µg/mL (≈ 0.107 µM)	Non-Toxic	0.25 µg/mL (≈ 0.429 µM)	0.125 µg/mL (≈ 0.215 µM)	–	–	–	–	–
C=C[C@]1(C)C[C@@H](OC(=O)CSc2nnc(-c3cccc(OC)c3)[nH]2)[C@]2(C)[C@H](C)CC[C@]3(CCC(=O)[C@H]32)[C@@H](C)[C@@H]1O	0.5 µg/mL (≈ 0.881 µM)	Non-Toxic	0.5 µg/mL (≈ 0.881 µM)	0.0625 µg/mL (≈ 0.11 µM)	Non-Toxic	0.125 µg/mL (≈ 0.22 µM)	0.125 µg/mL (≈ 0.22 µM)	–	–	–	–	–
C=C[C@]1(C)C[C@@H](OC(=O)CSc2nnc(-c3ccc(OC)cc3)[nH]2)[C@]2(C)[C@H](C)CC[C@]3(CCC(=O)[C@H]32)[C@@H](C)[C@@H]1O	1 µg/mL (≈ 1.76 µM)	Non-Toxic	0.5 µg/mL (≈ 0.881 µM)	0.0625 µg/mL (≈ 0.11 µM)	Non-Toxic	0.25 µg/mL (≈ 0.44 µM)	0.125 µg/mL (≈ 0.22 µM)	–	–	–	–	–
C=C[C@]1(C)C[C@@H](OC(=O)CSc2nnc(-c3ccc(C)cc3)[nH]2)[C@]2(C)[C@H](C)CC[C@]3(CCC(=O)[C@H]32)[C@@H](C)[C@@H]1O	1 µg/mL (≈ 1.81 µM)	Non-Toxic	0.5 µg/mL (≈ 0.906 µM)	0.0625 µg/mL (≈ 0.113 µM)	Non-Toxic	0.125 µg/mL (≈ 0.227 µM)	0.125 µg/mL (≈ 0.227 µM)	–	–	–	–	–
C=C[C@]1(C)C[C@@H](OC(=O)CSc2nnc(-c3ccc(Cl)cc3)[nH]2)[C@]2(C)[C@H](C)CC[C@]3(CCC(=O)[C@H]32)[C@@H](C)[C@@H]1O	1 µg/mL (≈ 1.75 µM)	Non-Toxic	0.5 µg/mL (≈ 0.874 µM)	0.125 µg/mL (≈ 0.218 µM)	Non-Toxic	0.0625 µg/mL (≈ 0.109 µM)	0.125 µg/mL (≈ 0.218 µM)	–	–	–	–	–
C=C[C@]1(C)C[C@@H](OC(=O)CSc2nnc(-c3ccccc3Cl)[nH]2)[C@]2(C)[C@H](C)CC[C@]3(CCC(=O)[C@H]32)[C@@H](C)[C@@H]1O	0.5 µg/mL (≈ 0.874 µM)	Non-Toxic	0.5 µg/mL (≈ 0.874 µM)	0.125 µg/mL (≈ 0.218 µM)	Non-Toxic	0.5 µg/mL (≈ 0.874 µM)	0.125 µg/mL (≈ 0.218 µM)	–	–	–	–	–
